Reference: patent US9403827B2, “Substituted purinone compounds” (NOVARTIS AG, priority 2013, dated 2016)

The molecules below were run against T1, human MDM2 protein (amino acids 2-188) (Homo sapiens (Human), UniProt Q00987) (assay: TR-FRET p53-MDM2 Assay 1). Conditions: 1.25 nM MDM2-biotinylated, 10 nM Cy5-p53 peptide.
Format: binding
Protocol: (§1) Time Resolved Fluorescence Energy Transfer (TR-FRET) Assay
(§2) The inhibition of p53-MDM2 and p53-MDM4 interactions is measured by time resolved fluorescence energy transfer (TR-FRET). Fluorescence energy transfer (or Foerster resonance energy transfer) describes an energy transfer between donor and acceptor fluorescent molecules. For this assay, human MDM2 protein (amino acids 2-188) and human MDM4 protein (amino acids 2-185), tagged with a C-terminal biotin moiety, are used in combination with a Europium labeled streptavidin (Perkin Elmer, Inc., Waltham, Mass., USA) serving as the donor fluorophore. The p53 derived, Cy5 labeled peptide Cy5-TFSDLWKLL (p53 aa18-26) is the energy acceptor. Upon excitation of the donor molecule at 340 nm, binding interaction between MDM2 or MDM4 and the p53 peptide induces energy transfer and enhanced response at the acceptor emission wavelength at 665 nm.
(§3) Disruption of the formation of the p53-MDM2 or p53-MDM4 complex due to an inhibitor molecule binding to the p53 binding site of MDM2 or MDM4 results in increased donor emission at 620 nm. The ratiometric FRET assay readout is calculated from the raw data of the two distinct fluorescence signals measured in time resolved mode (fluorescence 665 nm/fluorescence 620 nm×1000).
(§4) The test is performed in white 384-well plates (Greiner Bio-One, reference 781207) in a total volume of 60 μL by adding 1 μL of compounds tested at different concentrations diluted in 100% DMSO (1.7% final DMSO concentration) in reaction buffer (PBS, 125 mM NaCl, 0.001% Novexin (consists of carbohydrate polymers), designed to increase the solubility and stability of proteins; Expedeon Ltd., Cambridgeshire, United Kingdom), 0.01% Gelatin, 0.01% 0.2%, Pluronic F-127 (block copolymer from ethylenoxide and propyleneoxide), 1 mM DTT). After addition of 1.25 nM MDM2-biotinylated or 2.5 nM MDM4-biotinylated (internal preparations, both MDM2 and MDM4 are biotinylated at the C-terminal of the peptide construct), and 0.625 nM Europium labeled streptavidin (Perkin Elmer), the solution is pre-incubated for 15 minutes at room temperature, then 10 nM Cy5-p53 peptide (internal preparation, the Cy5 dye is directly bound to the N-terminal part of p53 peptide construct) is added before an incubation at room temperature for 15 minutes prior to reading the plate. For measurement of samples, a Victor II microplate reader (Perkin Elmer) is used with the following settings: Excitation 340 nm, Emission Donor 620 nm and Emission Acceptor 665 nm. IC50 values are calculated by curve fitting using XLfit. If not specified, reagents are purchased from Sigma-Aldrich Chemie GmBH, Buchs, Switzerland.
(§5) This assay was used to evaluate compounds displaying inhibition of p53-MDM2 interaction and p53-MDM4 interaction at IC50s of 0.005 to 50 μM (p53-MDM2 Assay 1 and p53-MDM4 Assay 1, respectively). For selected compounds displaying IC50s between […] on MDM2, a slightly modified assay is used with the following adaptations: 0.1 nM MDM2, 0.1 nM Europium labeled streptavidin and Tecan genios Pro is used as a microplate reader for the fluorescence measurements (p53-MDM2 Assay 2).

T1 sequence (Q00987 2-188): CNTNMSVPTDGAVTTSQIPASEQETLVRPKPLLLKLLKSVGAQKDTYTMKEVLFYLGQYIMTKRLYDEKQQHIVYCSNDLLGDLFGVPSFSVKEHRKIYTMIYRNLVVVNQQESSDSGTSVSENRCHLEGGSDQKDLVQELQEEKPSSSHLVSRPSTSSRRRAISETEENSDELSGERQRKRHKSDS

IC50 [µM] | Compound
0.12 | CC(C)n1c(Br)nc2c1C(c1ccc(Cl)cc1)N(c1cccc(Cl)c1F)C(=O)N2 (centres unmarked) [Example 5, 8-Bromo-1-(3-chloro-2-fluorophenyl)-6-(4-chlorophenyl)-7-isopropyl-6,7-dihydro-1H-purin-2(3H)-one]

The molecules below were run against T1, human MDM2 protein (amino acids 2-188) (assay: TR-FRET p53-MDM2 Assay 2 (modified: 0.1 nM MDM2)). Conditions: 0.1 nM MDM2, 0.1 nM Europium labeled streptavidin, Tecan genios Pro reader.
Format: binding
Protocol: as §1, §2, §3, §4, §5

IC50 [nM] | Compound
0.724 | COc1ccccc1-c1nc2c(n1C(C)C)C(c1ccc(C#N)cc1)N(c1cc(Cl)ccc1C)C(=O)N2 (centres unmarked) [Example 13, 4-[1-(5-Chloro-2-methyl-phenyl)-7-isopropyl-8-(2-methoxy-phenyl)-2-oxo-2,3,6,7-tetrahydro-1H-purin-6-yl]-benzonitrile]
1.67 | COc1ncc(-c2nc3c(n2C(C)C)C(c2ccc(Cl)c(F)c2)N(c2cc(Cl)cn(C)c2=O)C(=O)N3)c(OC)n1 (centres unmarked) [Example 17, 1-(5-Chloro-1-methyl-2-oxo-1,2-dihydropyridin-3-yl)-6-(4-chloro-3-fluorophenyl)-8-(2,4-dimethoxypyrimidin-5-yl)-7-isopropyl-6,7-dihydro-1H-purin-2(3H)-one]
0.748 | COc1nc(N(C)C)ncc1-c1nc2c(n1C(C)C)C(c1ccc(Cl)c(F)c1)N(c1cc(Cl)cn(C)c1=O)C(=O)N2 (centres unmarked) [Example 24, 1-(5-Chloro-1-methyl-2-oxo-1,2-dihydropyridin-3-yl)-6-(4-chloro-3-fluorophenyl)-8-(2-(dimethylamino)-4-methoxypyrimidin-5-yl)-7-isopropyl-6,7-dihydro-1H-purin-2(3H)-one]
0.414 | COc1ccc(C#N)cc1-c1nc2c(n1C(C)C)C(c1ccc(Cl)cc1C)N(c1cc(Cl)ccc1C)C(=O)N2 (centres unmarked) [Example 12, 3-[1-(5-Chloro-2-methyl-phenyl)-6-(4-chloro-2-methyl-phenyl)-7-isopropyl-2-oxo-2,3,6,7-tetrahydro-1H-purin-8-yl]-4-methoxy-benzonitrile]
0.371 | COc1ccc(CO)cc1-c1nc2c(n1C(C)C)C(c1ccc(Cl)cc1C)N(c1cc(Cl)ccc1C)C(=O)N2 (centres unmarked) [Example 11, 1-(5-Chloro-2-methyl-phenyl)-6-(4-chloro-2-methyl-phenyl)-8-(5-hydroxymethyl-2-methoxy-phenyl)-7-isopropyl-1,3,6,7-tetrahydro-purin-2-one]
0.93 | COc1ncc(-c2nc3c(n2C(C)C)C(c2ccc(Cl)c(F)c2)N(c2cc(Cl)c(=O)n(C)c2)C(=O)N3)c(OC)n1 (centres unmarked) [Example 19, 1-(5-Chloro-1-methyl-6-oxo-1,6-dihydropyridin-3-yl)-6-(4-chloro-3-fluorophenyl)-8-(2,4-dimethoxypyrimidin-5-yl)-7-isopropyl-6,7-dihydro-1H-purin-2(3H)-one]
0.473 | COc1ccccc1-c1nc2c(n1C(C)C)C(c1ccc(C#N)cc1)N(c1cccc(Cl)c1F)C(=O)N2 (centres unmarked) [Example 14, 4-(1-(3-Chloro-2-fluorophenyl)-7-isopropyl-8-(2-methoxyphenyl)-2-oxo-2,3,6,7-tetrahydro-1H-purin-6-yl)benzonitrile]
0.447 | COc1ccc(C(=O)NCCO)cc1-c1nc2c(n1C(C)C)C(c1ccc(Cl)cc1C)N(c1cc(Cl)ccc1C)C(=O)N2 (centres unmarked) [Example 8, 3-[1-(5-Chloro-2-methyl-phenyl)-6-(4-chloro-2-methyl-phenyl)-7-isopropyl-2-oxo-2,3,6,7-tetrahydro-1H-purin-8-yl]-N-(2-hydroxy-ethyl)-4-methoxy-benzamide]
4.3 | COc1nc(N)ncc1-c1nc2c(n1C(C)C)C(c1ccc(Cl)cc1)N(c1cc(Cl)cn(C)c1=O)C(=O)N2 (centres unmarked) [Example 21, 8-(2-Amino-4-methoxypyrimidin-5-yl)-1-(5-chloro-1-methyl-2-oxo-1,2-dihydropyridin-3-yl)-6-(4-chlorophenyl)-7-isopropyl-6,7-dihydro-1H-purin-2(3H)-one]
0.432 | COc1ccc(C(=O)N(C)C)cc1-c1nc2c(n1C(C)C)C(c1ccc(Cl)cc1C)N(c1cc(Cl)ccc1C)C(=O)N2 (centres unmarked) [Example 10, 3-[1-(5-Chloro-2-methyl-phenyl)-6-(4-chloro-2-methyl-phenyl)-7-isopropyl-2-oxo-2,3,6,7-tetrahydro-1H-purin-8-yl]-4-methoxy-N,N-dimethyl-benzamide]
3.11 | COc1ncc(-c2nc3c(n2C(C)C)C(c2ccc(Cl)cc2C)N(c2cc(Cl)c(=O)n(C)c2)C(=O)N3)c(OC)n1 (centres unmarked) [Example 16, 1-(5-Chloro-1-methyl-6-oxo-1,6-dihydro-pyridin-3-yl)-6-(4-chloro-2-methyl-phenyl)-8-(2,4-dimethoxy-pyrimidin-5-yl)-7-isopropyl-1,3,6,7-tetrahydro-purin-2-one]
0.531 | COc1ccc(F)cc1-c1nc2c(n1C(C)C)C(c1ccc(Cl)cc1C)N(c1cc(Cl)ccc1C)C(=O)N2 (centres unmarked) [Example 7, 1-(5-Chloro-2-methyl-phenyl)-6-(4-chloro-2-methyl-phenyl)-8-(5-fluoro-2-methoxy-phenyl)-7-isopropyl-1,3,6,7-tetrahydro-purin-2-one]
0.385 | COc1nc(N(C)C)ncc1-c1nc2c(n1C(C)C)C(c1ccc(Cl)c(F)c1)N(c1ccc(F)c(Cl)c1)C(=O)N2 (centres unmarked) [Example 23, 6-(4-Chloro-3-fluorophenyl)-1-(3-chloro-4-fluorophenyl)-8-(2-(dimethylamino)-4-methoxypyrimidin-5-yl)-7-isopropyl-6,7-dihydro-1H-purin-2(3H)-one]
0.356 | COc1ncc(-c2nc3c(n2C(C)C)C(c2ccc(Cl)c(F)c2)N(c2cc(Cl)c[nH]c2=O)C(=O)N3)c(OC)n1 (centres unmarked) [Example 25, 1-(5-Chloro-2-oxo-1,2-dihydropyridin-3-yl)-6-(4-chloro-3-fluorophenyl)-8-(2,4-dimethoxypyrimidin-5-yl)-7-isopropyl-6,7-dihydro-1H-purin-2(3H)-one]
0.21 | CNC(=O)c1ccc(OC)c(-c2nc3c(n2C(C)C)C(c2ccc(Cl)cc2C)N(c2cc(Cl)ccc2C)C(=O)N3)c1 (centres unmarked) [Example 9, 3-[1-(5-Chloro-2-methyl-phenyl)-6-(4-chloro-2-methyl-phenyl)-7-isopropyl-2-oxo-2,3,6,7-tetrahydro-1H-purin-8-yl]-4-methoxy-N-methyl-benzamide]
0.587 | COc1nc(N(C)C)ncc1-c1nc2c(n1C(C)C)C(c1ccc(Cl)cc1)N(c1cc(Cl)cn(C)c1=O)C(=O)N2 (centres unmarked) [Example 22, 1-(5-Chloro-1-methyl-2-oxo-1,2-dihydropyridin-3-yl)-6-(4-chlorophenyl)-8-(2-(dimethylamino)-4-methoxypyrimidin-5-yl)-7-isopropyl-6,7-dihydro-1H-purin-2(3H)-one]
2.91 | COc1ncc(-c2nc3c(n2C(C)C)C(c2ccc(Cl)cc2)N(c2cc(Cl)cn(C)c2=O)C(=O)N3)c(OC)n1 (centres unmarked) [Example 18, 1-(5-Chloro-1-methyl-2-oxo-1,2-dihydropyridin-3-yl)-6-(4-chlorophenyl)-8-(2,4-dimethoxypyrimidin-5-yl)-7-isopropyl-6,7-dihydro-1H-purin-2(3H)-one]
0.354 | COc1nc(N(C)C)ncc1-c1nc2c(n1C(C)C)C(c1ccc(Cl)c(F)c1)N(c1cc(Cl)c[nH]c1=O)C(=O)N2 (centres unmarked) [Example 20, 1-(5-Chloro-2-oxo-1,2-dihydropyridin-3-yl)-6-(4-chloro-3-fluorophenyl)-8-(2-(dimethylamino)-4-methoxypyrimidin-5-yl)-7-isopropyl-6,7-dihydro-1H-purin-2(3H)-one]
0.451 | COc1ncc(-c2nc3c(n2C(C)C)C(c2ccc(Cl)c(F)c2)N(c2ccc(F)c(Cl)c2)C(=O)N3)c(OC)n1 (centres unmarked) [Example 15, 6-(4-Chloro-3-fluorophenyl)-1-(3-chloro-4-fluorophenyl)-8-(2,4-dimethoxypyrimidin-5-yl)-7-isopropyl-6,7-dihydro-1H-purin-2(3H)-one]
